Experiments:
[1] = target: T1, COPZ1^7-150 (truncated human coatomer subunit zeta-1) (Homo sapiens, UniProt P61923); experiment: fluorescence thermal shift assay (Sypro Orange); type: binding; conditions: 10 µM compound; 4 µM protein; 20 mM HEPES, 150 mM NaCl, pH 7.5
T1 construct: E. coli BL21(DE3), pET-28a(+)
T1 sequence (P61923 7-150): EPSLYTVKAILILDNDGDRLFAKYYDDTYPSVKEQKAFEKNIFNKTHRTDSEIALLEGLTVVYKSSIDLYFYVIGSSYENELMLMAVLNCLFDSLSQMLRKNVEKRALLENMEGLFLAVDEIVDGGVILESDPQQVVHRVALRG

[2] = target: T2, COPZ1 (endogenous, in EV-A71-infected RD cells) (Homo sapiens, UniProt P61923); experiment: competition against MPA-P photoaffinity labelling, pulldown / western blot; type: cell-based; conditions: competitor of photoaffinity probe MPA-P
T2 sequence (P61923 1-177): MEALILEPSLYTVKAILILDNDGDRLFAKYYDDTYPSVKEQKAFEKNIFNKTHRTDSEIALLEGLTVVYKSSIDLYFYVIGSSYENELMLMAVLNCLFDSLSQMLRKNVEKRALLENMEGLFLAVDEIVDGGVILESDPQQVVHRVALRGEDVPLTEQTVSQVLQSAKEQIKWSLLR

[3] = target: T1, COPZ1^7-150 (truncated human coatomer subunit zeta-1); experiment: SPR, CM5 chip, COPZ1 immobilised; type: binding
[4] = target: T2, COPZ1 (endogenous, in EV-A71-infected RD cells); experiment: photoaffinity labelling in cells, pulldown / western blot; type: cell-based; conditions: covalent (diazirine photo-crosslinking, 365 nm)

SMILES | ΔT m [1] | competition against MPA-P photoaffinity labelling, pulldown / western blot [2] | Kd [3] | photoaffinity labelling in cells, pulldown / western blot [4]
O=C(c1ccc(C(F)(F)F)cc1O)c1[nH]c(Cl)c(Cl)c1-n1c(C(=O)c2ccc(C(F)(F)F)cc2O)cc(Cl)c1Cl [MPA-CF3] | −3.6 °C | implying that MPA‐CF3 specifically binds to COPZ1 in intact cells | 24 nM | –
C#CCCC1(CCSc2c(Cl)cc(C(=O)c3ccc(C(F)(F)F)cc3O)n2-c2c(C(=O)c3ccc(C(F)(F)F)cc3O)[nH]c(Cl)c2Cl)N=N1 [MPA-P] | – | – | – | labeling intensity of COPZ1 by MPA‐P in EV‐A71‐infected RD cells

Reference: paper PMC11151152, “Chemoproteomics enables identification of coatomer subunit zeta‐1 targeted by a small molecule for enterovirus A71 inhibition” (MedComm, 2024)
